Laboratory results taken from patent publication US12077503B2, “Substituted cyclic amides and their use as herbicides” (FMC CORPORATION, priority 2015, dated 2024).

Legend:
Type in all cases: in vivo
[1] = system: redroot pigweed (Amaranthus retroflexus); test: Test G Pre-Emergence Protocol; details: Amaranthus retroflexus, pre-emergence, 312 h, evaluated after 13 days; for pest or weed control at 15.625 g/ha: 15.625 g ai/ha; for pest or weed control at 15.625 g/ha / pest or weed control at 250 g/ha: read-out: Pigweed, Redroot damage rating (100=total damage to plant; 0=no damage to plant); for pest or weed control at 62.5 g/ha: 62.5 g ai/ha, 100=total damage to plant, 0=no damage to plant, read-out: plant damage rating, Pigweed, Redroot; for pest or weed control at 250 g/ha: 250 g ai/ha
Procedure, shortened: (§1)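 Scores are visual damage ratings from 0 (no damage) to 100 (total plant kill), taken 13 days after treatment. Compound was sprayed one day post-sowing at 15.625, 62.5 or 250 g/ha in 50:50 acetone/water with 0.5% Tween 20.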

[2] = system: velvetleaf (Abutilon theophrasti); test: Test G Pre-Emergence Protocol; details: Abutilon theophrasti, pre-emergence, 312 h, evaluated after 13 days; for pest or weed control at 15.625 g/ha: 15.625 g ai/ha; for pest or weed control at 15.625 g/ha / pest or weed control at 250 g/ha: read-out: Velvetleaf damage rating (100=total damage to plant; 0=no damage to plant); for pest or weed control at 62.5 g/ha: 62.5 g ai/ha, 100=total damage to plant, 0=no damage to plant, read-out: plant damage rating, Velvetleaf; for pest or weed control at 250 g/ha: 250 g ai/ha
Procedure, shortened: as §1

[3] = system: barnyardgrass (Echinochloa crus-galli); test: Test G Pre-Emergence Protocol; details: Echinochloa crus-galli, pre-emergence, 312 h, evaluated after 13 days; for pest or weed control at 15.625 g/ha: 15.625 g ai/ha, read-out: Barnyard grass damage rating (100=total damage to plant; 0=no damage to plant); for pest or weed control at 62.5 g/ha: 62.5 g ai/ha, 100=total damage to plant, 0=no damage to plant, read-out: plant damage rating, Barnyardgrass; for pest or weed control at 250 g/ha: 250 g ai/ha, read-out: Barnyardgrass damage rating (100=total damage to plant; 0=no damage to plant)
Procedure, shortened: as §1

corn (Zea mays) [4] = test: Test G Pre-Emergence Protocol; details: Zea mays, pre-emergence, 312 h, evaluated after 13 days; for plant injury at 15.625 g/ha: 15.625 g ai/ha; for plant injury at 15.625 g/ha / plant injury at 250 g/ha: read-out: Corn damage rating (100=total damage to plant; 0=no damage to plant); for plant injury at 62.5 g/ha: 62.5 g ai/ha, 100=total damage to plant, 0=no damage to plant, read-out: plant damage rating, Corn; for plant injury at 250 g/ha: 250 g ai/ha
Procedure, shortened: as §1

[5] = system: giant foxtail (Setaria faberi); test: Test G Pre-Emergence Protocol; details: Setaria faberi, pre-emergence, 312 h, evaluated after 13 days; for pest or weed control at 15.625 g/ha: 15.625 g ai/ha; for pest or weed control at 15.625 g/ha / pest or weed control at 250 g/ha: read-out: Foxtail, Giant damage rating (100=total damage to plant; 0=no damage to plant); for pest or weed control at 62.5 g/ha: 62.5 g ai/ha, 100=total damage to plant, 0=no damage to plant, read-out: plant damage rating, Foxtail, Giant; for pest or weed control at 250 g/ha: 250 g ai/ha
Procedure, shortened: as §1

[6] = system: ivy-leaved morning glory (Ipomoea hederacea); test: Test G Pre-Emergence Protocol; details: Ipomoea, pre-emergence, 312 h, evaluated after 13 days; for pest or weed control at 15.625 g/ha: 15.625 g ai/ha, read-out: Morning-glory, Ivy-leaved damage rating (100=total damage to plant; 0=no damage to plant); for pest or weed control at 62.5 g/ha: 62.5 g ai/ha, 100=total damage to plant, 0=no damage to plant, read-out: plant damage rating, Morningglory, Ivy-leaved; for pest or weed control at 250 g/ha: 250 g ai/ha, read-out: Morningglory, Ivy-leaved damage rating (100=total damage to plant; 0=no damage to plant)
Procedure, shortened: as §1

[7] = system: redroot pigweed (Amaranthus retroflexus); test: Test G Post-Emergence Protocol; details: Amaranthus retroflexus, post-emergence, 312 h; for pest or weed control at 15.625 g/ha: 15.625 g ai/ha, evaluated after 13 days (100=total damage to plant; 0=no damage to plant), read-out: Pigweed, Redroot damage rating; for pest or weed control at 62.5 g/ha: 62.5 g ai/ha, read-out: Pigweed, Redroot damage rating (100=total damage to plant; 0=no damage to plant); for pest or weed control at 62.5 g/ha / pest or weed control at 250 g/ha: evaluated after 13 days; for pest or weed control at 250 g/ha: 250 g ai/ha, read-out: damage to plant, Pigweed, Redroot (100=total damage to plant; 0=no damage to plant)
Procedure, shortened: (§2)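 Seedlings grown 8 days in soil in a glasshouse (24/16 °C day/night, 14 h light, 65% humidity) were sprayed post-emergence with compound in acetone/water 50:50 plus 0.5% Tween 20 at 15.625, 62.5 or 250 g/ha. Damage was scored after 13 days on a 0–100 scale (100 = total damage).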

[8] = system: velvetleaf (Abutilon theophrasti); test: Test G Post-Emergence Protocol; details: Abutilon theophrasti, post-emergence, 312 h; for pest or weed control at 15.625 g/ha: 15.625 g ai/ha, evaluated after 13 days (100=total damage to plant; 0=no damage to plant), read-out: Velvetleaf damage rating; for pest or weed control at 62.5 g/ha: 62.5 g ai/ha, read-out: Velvetleaf damage rating (100=total damage to plant; 0=no damage to plant); for pest or weed control at 62.5 g/ha / pest or weed control at 250 g/ha: evaluated after 13 days; for pest or weed control at 250 g/ha: 250 g ai/ha, read-out: damage to plant, Velvetleaf (100=total damage to plant; 0=no damage to plant)
Procedure, shortened: as §2

[9] = system: barnyardgrass (Echinochloa crus-galli); test: Test G Post-Emergence Protocol; details: Echinochloa crus-galli, post-emergence, 312 h; for pest or weed control at 15.625 g/ha: 15.625 g ai/ha, evaluated after 13 days (100=total damage to plant; 0=no damage to plant), read-out: Barnyardgrass damage rating; for pest or weed control at 62.5 g/ha: 62.5 g ai/ha, read-out: Barnyardgrass damage rating (100=total damage to plant; 0=no damage to plant); for pest or weed control at 62.5 g/ha / pest or weed control at 250 g/ha: evaluated after 13 days; for pest or weed control at 250 g/ha: 250 g ai/ha, read-out: damage to plant, Barnyardgrass (100=total damage to plant; 0=no damage to plant)
Procedure, shortened: as §2

corn (Zea mays) [10] = test: Test G Post-Emergence Protocol; details: Zea mays, post-emergence, 312 h; for plant injury at 15.625 g/ha: 15.625 g ai/ha, evaluated after 13 days (100=total damage to plant; 0=no damage to plant), read-out: Corn damage rating; for plant injury at 62.5 g/ha: 62.5 g ai/ha, read-out: Corn damage rating (100=total damage to plant; 0=no damage to plant); for plant injury at 62.5 g/ha / plant injury at 250 g/ha: evaluated after 13 days; for plant injury at 250 g/ha: 250 g ai/ha, read-out: damage to plant, Corn (100=total damage to plant; 0=no damage to plant)
Procedure, shortened: as §2

[11] = system: giant foxtail (Setaria faberi); test: Test G Post-Emergence Protocol; details: Setaria faberi, post-emergence, 312 h; for pest or weed control at 15.625 g/ha: 15.625 g ai/ha, evaluated after 13 days (100=total damage to plant; 0=no damage to plant), read-out: Foxtail, Giant damage rating; for pest or weed control at 62.5 g/ha: 62.5 g ai/ha, read-out: Foxtail, Giant damage rating (100=total damage to plant; 0=no damage to plant); for pest or weed control at 62.5 g/ha / pest or weed control at 250 g/ha: evaluated after 13 days; for pest or weed control at 250 g/ha: 250 g ai/ha, read-out: damage to plant, Foxtail, Giant (100=total damage to plant; 0=no damage to plant)
Procedure, shortened: as §2

[12] = system: ivy-leaved morning glory (Ipomoea hederacea); test: Test G Post-Emergence Protocol; details: Ipomoea, post-emergence, 312 h; for pest or weed control at 15.625 g/ha: 15.625 g ai/ha, evaluated after 13 days (100=total damage to plant; 0=no damage to plant), read-out: Morningglory, Ivy-leaved damage rating; for pest or weed control at 62.5 g/ha: 62.5 g ai/ha, read-out: Morningglory, Ivy-leaved damage rating (100=total damage to plant; 0=no damage to plant); for pest or weed control at 62.5 g/ha / pest or weed control at 250 g/ha: evaluated after 13 days; for pest or weed control at 250 g/ha: 250 g ai/ha, read-out: damage to plant, Morningglory, Ivy-leaved (100=total damage to plant; 0=no damage to plant)
Procedure, shortened: as §2

SMILES	pest or weed control at 15.625 g/ha [1] [%]	pest or weed control at 62.5 g/ha [1] [%]	pest or weed control at 250 g/ha [1] [%]	pest or weed control at 15.625 g/ha [2] [%]	pest or weed control at 62.5 g/ha [2] [%]	pest or weed control at 250 g/ha [2] [%]	pest or weed control at 15.625 g/ha [3] [%]	pest or weed control at 62.5 g/ha [3] [%]	pest or weed control at 250 g/ha [3] [%]	plant injury at 15.625 g/ha (corn (Zea mays) [4]) [%]	plant injury at 62.5 g/ha (corn (Zea mays) [4]) [%]	plant injury at 250 g/ha (corn (Zea mays) [4]) [%]	pest or weed control at 15.625 g/ha [5] [%]	pest or weed control at 62.5 g/ha [5] [%]	pest or weed control at 250 g/ha [5] [%]	pest or weed control at 15.625 g/ha [6] [%]	pest or weed control at 62.5 g/ha [6] [%]	pest or weed control at 250 g/ha [6] [%]	pest or weed control at 15.625 g/ha [7] [%]	pest or weed control at 62.5 g/ha [7] [%]	other results
CN1C[C@H](c2ccc(C(C)(C)C)cc2)[C@@H](C(=O)Nc2ccccc2F)C1=O (racemic) [Compound 1409]	0	0	0	0	0	0	0	0	10	0	0	0	0	0	40	0	0	0	0	0	pest or weed control at 250 g/ha [7]: 10%; pest or weed control at 15.625 g/ha [8]: 0%; pest or weed control at 62.5 g/ha [8]: 0%; pest or weed control at 250 g/ha [8]: 10%; pest or weed control at 15.625 g/ha [9]: 0%; pest or weed control at 62.5 g/ha [9]: 10%; pest or weed control at 250 g/ha [9]: 30%; plant injury at 15.625 g/ha (corn (Zea mays) [10]): 0%; plant injury at 62.5 g/ha (corn (Zea mays) [10]): 0%; plant injury at 250 g/ha (corn (Zea mays) [10]): 10%; pest or weed control at 15.625 g/ha [11]: 0%; pest or weed control at 62.5 g/ha [11]: 0%; pest or weed control at 250 g/ha [11]: 40%; pest or weed control at 15.625 g/ha [12]: 0%; pest or weed control at 62.5 g/ha [12]: 0%; pest or weed control at 250 g/ha [12]: 0%
Cc1ccc(NC(=O)[C@H]2C(=O)N(C)C[C@@H]2c2ccc(C(F)(F)F)cc2)c(C)c1 (racemic) [Compound 1410]	0	20	10	0	10	20	0	0	20	0	0	0	0	0	80	0	0	10	0	0	pest or weed control at 250 g/ha [7]: 10%; pest or weed control at 15.625 g/ha [8]: 0%; pest or weed control at 62.5 g/ha [8]: 0%; pest or weed control at 250 g/ha [8]: 0%; pest or weed control at 15.625 g/ha [9]: 0%; pest or weed control at 62.5 g/ha [9]: 0%; pest or weed control at 250 g/ha [9]: 20%; plant injury at 15.625 g/ha (corn (Zea mays) [10]): 0%; plant injury at 62.5 g/ha (corn (Zea mays) [10]): 0%; plant injury at 250 g/ha (corn (Zea mays) [10]): 10%; pest or weed control at 15.625 g/ha [11]: 0%; pest or weed control at 62.5 g/ha [11]: 0%; pest or weed control at 250 g/ha [11]: 50%; pest or weed control at 15.625 g/ha [12]: 0%; pest or weed control at 62.5 g/ha [12]: 0%; pest or weed control at 250 g/ha [12]: 20%
